The results in this text go back to US6911443B2 (Bayer Aktiengesellschaft, priority 2000, dated 2005).

Molecules are shown by their SMILES. Some results are limits rather than exact numbers.

The target of the first experiment is T1, human Syk (GST-Syk) (Homo sapiens, UniProt P43405).
T1 construct: A cDNA fragment encoding human Syk openreading frame was cloned; made in house; host or cells: Sf21 insect cells (baculovirus, transfer vector pAcG2T)
As to the kind of experiment: Syk tyrosine kinase inhibitory assay. The format is biochemical. The following applies: Activity grade (IC50 class), in vitro; compounds as yielded by solid phase synthesis, purity about 40 to 90%. An outline of the steps: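 Readout: streptavidin-captured biotin-AL peptide probed with europium-4G10 anti-phosphotyrosine, time-resolved fluorescence (ex 340/em 615 nm). Reaction ran 1 h at room temperature with 30 μM ATP, 3 μM peptide, 0.65 nM Sf21-expressed GST-Syk and 0.25% DMSO, pH 8.0.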
`CCSc1nc(-c2ccc(OC)c(OC(=O)N(C)C)c2)cc2nccn12` [Example 4-10] came in with an IC50 of 500 to 2000 nM.

The same experiment, now with this note: Table 11; read-out: Activity grade.
As to `COc1ccc(-c2cc3nccn3c(Nc3ccccn3)n2)cc1OC` [Example 12-3], the IC50 is < 500 nM. On to `COc1ccc(-c2cc3nccn3c(Nc3ccc(Cl)nc3)n2)cc1OC` [Example 12-30], for which the IC50 was < 500 nM.

Still in this experiment, the particulars now being: Table 13; read-out: Activity grade.
As for `COc1ccc(CSc2nc(-c3ccc(OC)c(OC)c3)cc3nccn23)cc1` [Example 14-1], the IC50 was in the range of 500 to 2000 nM. On the same count and under the same terms, for `COC(=O)c1cccnc1Nc1nc(-c2ccc(OC)c(OC)c2)cc2nccn12` [Example 14-36] the value was 2000 to 10000 nM.

The same experiment, now with this note: Table 16; read-out: Activity grade.
Regarding `COc1ccc(Nc2nc(-c3ccc(N4CCCC4)c(OC)c3)cc3nccn23)cc1` [Example 17-16], the IC50 was < 500 nM.

For `CCSc1nc(-c2ccc(OC)c(NCCCCN(C)C)c2)cc2nccn12` [Example 17-1], the IC50 fell in the range of 500 to 2000 nM. For `CCSc1nc(-c2ccc(NC)c(OC)c2)cc2nccn12` [Example 17-14], the IC50 was 500 to 2000 nM.

Still in this experiment, the particulars now being: Table 17; IC50 classes; read-out: Activity grade.
On to `COc1ccc(-c2cc3nccn3c(Nc3ccc(C(=O)NCCCO)cc3)n2)cc1OC` [Example 7], for which the IC50 was < 500 nM. Same read-out and setting: for `COc1ccc(-c2cc3nccn3c(Sc3ccc(CCC(=O)NCCC#N)cc3)n2)cc1OC` [Example 23] the value was < 500 nM; for `COc1ccc(-c2cc3nccn3c(Nc3ccc(C(=O)N(C)CCO)cc3)n2)cc1OC` [compound 6], < 500 nM.

The experiment is the same for the next values; noted with them: in vitro; compounds as yielded by solid phase synthesis, purity about 40 to 90%.
As to `CCSc1nc(-c2ccc(S(=O)(=O)NCCN(C)C)c(OC)c2)cc2nccn12` [Example 2-8], the “Activity grade (IC50 class)” value was “C-D”.

Still in this experiment, the particulars now being: in vitro; compounds as yielded by solid phase synthesis, purity about 40 to 90%; read-out: Activity grade (IC50 class).
As to `COC(=O)c1ccc(Nc2nc(-c3ccc(OC)c(OC)c3)cc3nccn23)cc1` [Example 11-26], the IC50 was < 500 nM. As for `COc1ccc(-c2cc3nccn3c(N3CCN(C(=O)c4ccco4)CC3)n2)cc1OC` [Example 9-46], the IC50 lay within 2000 to 10000 nM.

Turning to `COc1ccc(Nc2nc(-c3ccc(OC)c(OC)c3)cc3ncnn23)cc1` [Example 11-15], the IC50 was < 500 nM. With `COc1ccc(-c2cc3ncnn3c(Nc3cccc(N)n3)n2)cc1OC` [Example 9-16], the IC50 was < 500 nM. Still for that read-out and setting: for `C=CCN(c1ccccc1)c1nc(-c2ccc(OC)c(OC)c2)cc2nccn12` [Example 11-47] the value was < 500 nM; for `COc1ccc(-c2cc3nccn3c(Nc3ccccc3[N+](=O)[O-])n2)cc1OC` [Example 11-56], < 500 nM; for `CCN(CCO)c1ccc(Nc2nc(-c3ccc(OC)c(OC)c3)cc3nccn23)cc1` [Example 11-68], < 500 nM. Consider `COC(=O)CCSc1nc(-c2ccc(OC)c(OC)c2)cc2nccn12` [Example 9-90], for which the IC50 was < 500 nM. With `COc1ccc(-c2cc3nccn3c(Nc3ccccc3S(C)(=O)=O)n2)cc1OC` [Example 11-119], the IC50 is < 500 nM. As for `COc1ccc(-c2cc3nccn3c(Nc3ccc4c(c3)[nH]c(=O)n4C)n2)cc1OC` [Example 11-118], the IC50 was < 500 nM. For `CCSc1nc(-c2ccc(OC)c(OCCCN3CC[C@H](N(C)C)C3)c2)cc2nccn12` [Example 5-5], the IC50 was in the range of 500 to 2000 nM. `COc1ccc(-c2cc3nccn3c(Nc3ccc(F)cc3)n2)cc1OC` [Example 11-60]: the IC50 was < 500 nM. The same measure, in the same setting: for `CCSc1nc(-c2ccc(OCC3CCCCO3)c(OC)c2)cc2nccn12` (stereo not drawn) [Example 3-4] the value was < 500 nM; for `CCN(CC)c1nc(-c2ccc(OC)c(OC)c2)cc2nccn12` [Example 9-56], 500 to 2000 nM. `CCSc1nc(-c2ccc(O)c(OC)c2)cc2nccn12` [material for Example 3, 4-(5-Ethylsulfanyl-imidazo[1,2-c]pyrimidin-7-yl)-2-methoxyphenol]: the IC50 was < 500 nM.

For the compound `COc1ccc(-c2cc3nccn3c(Nc3ccc(CCCC(=O)O)cc3C(N)=O)n2)cc1OC` [Example 11-105], the IC50 is < 500 nM.

Consider `COc1ccc(-c2cc3nccn3c(N3CCN(c4ncccn4)CC3)n2)cc1OC` [Example 9-41], for which the IC50 is 500 to 2000 nM. Consider `CCN(Cc1ccncc1)c1nc(-c2ccc(OC)c(OC)c2)cc2nccn12` [Example 9-52], for which the IC50 was 500 to 2000 nM. Regarding `CCSc1nc(-c2ccc(OC)c(OC3CCCCC3)c2)cc2nccn12` [Example 4-4], the IC50 lay in the range of 500 to 2000 nM. Same read-out and setting: the value for `CCCCOc1ccc(Nc2nc(-c3ccc(OC)c(OC)c3)cc3nccn23)cc1` [Example 11-94] was 2000 to 10000 nM; that for `COc1ccc(-c2cc3nccn3c(Sc3ccc(N)cc3)n2)cc1OC` [Example 13-4] was < 500 nM.
